Source: patent publication US20040072171A1, “Method for identifying compounds for modulating the activity of a tumor suppressor protein” (priority 2000, published 2004)

Experiments:
[1] = test system: MEK; conditions: merlin-inducible schwannoma cells, inhibitor for 2 or 12 hours
Description: Merlin-inducible schwannoma cells were plated onto 6-well plates at a density of 1.5×10^4 cells per well. 1 μg/ml doxycyclin was added where stated. After 16 hours, an MEK activation inhibitor (UO126; Promega) was added for 2 or 12 hours. 0 means no addition of inhibitor. The cells were harvested and solubilized in 2×Laemmli buffer, and the proteins were separated on a 10% SDS polyacrylamide gel. The proteins were transferred to a membrane, and an immune blot was carried out either with the polyclonal p27^Kip1 antibody C-19 from rabbit or with the Rb-specific antibody C-15 (Santa Cruz). The actin-specific antibody I-19 was used as loading control.

[2] = test system: Erk; assay: PDGF-dependent phosphorylation of Erk; type: cell-based, rat; conditions: clone 54, serum starvation, doxycyclin 8 hours, PDGF 5 ng/ml 5 minutes
Description: The cells were used to seed 6-well plates at Low density and 24-well plates at high density, with or without 0.8% methylcellulose. The cells remained free from serum for 24 hours and were treated with doxycyclin or left untreated for the last 8 hours. Then, the cells were stimulated for 5 minutes with 5 ng/ml PDGF and subsequently harvested in 2×Laemmli sample buffer, and the cell extracts were separated on a 10% SDS polyacrylamide gel. After the proteins had been transferred to the membrane, immunoblots were prepared with a phospho-Erk-specific antibody, and the bound antibody was detected. As a control for uniform loading of the separating gel with Erk, the membrane was stripped (freed from antibody) and anti-Erk-blotted.
C. […] Cells of clone 54 were plated at high or low cell density, left to grow for 24 hours with serum starvation and treated during the last 8 hours with doxycyclin (+) or left untreated (−). Where stated, the cells were treated for 2 hours with hyaluronidase (HAase, 5 U/μl), for 10 minutes with solCD44wt and/or for 5 minutes with PDGF (5ng/ml). The proteins of the lysates were separated by means of SDS-PAGE, and immune blots were carried out with phospho-Erk and Erk-specific antibodies. Clone 63 gave the same results as all the experiments in FIG. 6.
C. […] Cells were grown at low cell density and subsequently treated with doxycyclin with serum starvation cells as shown in FIG. 6C and assayed for the PDGF-dependent phosphorylation of Erk. Where stated, HA (100 μg/ml) was present for 10 minutes and PDGF (5 ng/ml) was present for 5 minutes. Experiments A to C were also carried out with clone 63, and similar results were obtained.

[3] = test system: merlin; assay: Immune blot for dephosphorylation of merlin in clone 54 lysates; type: cell-based, rat; conditions: exponentially growing clone 54 cells, 8 hours doxycyclin
Description: For the immunoprecipitation of merlin, the cells were grown to confluence in 10 cm dishes, washed once with ice-cold PBS and then placed on ice and lysed with 1 ml lysis buffer per plate (50 mM Tris pH 7.4, 150 mM NaCl, 3 mM MgCl2, 0.5% NP-40, 1 mM PMSF, 10 μg/aprotinin ml, 10 μg/ml leupeptin). The DNA was sheared using a gauge 26 needle. The lysate was clarified by centrifugation, and the supernatant was incubated with 5 μg/ml merlin antibody at 4° C. overnight with gentle rotation. The reaction was subsequently treated with 30 μl of protein A agarose (dianova) and left to rotate for a further 3 hours at 4° C. The immune complexes were washed 4 times with cold lysis buffer and separated in 50 μl 2×Laemmli sample buffer. The protein was dissolved in a 10% SDS-PAGE, and immunoblots were generated with a merlin-specific antibody. For the treatment with calf intestine phosphatase (CIP), the lysate was incubated for 1 hour at 30° C. with 1 unit CIP prior to the immunoprecipitation. The coimmunoprecipitation of merlin and CD44 was carried out analogously, except that a different lysis buffer was used (20 mM Tris pH 7.4, 50 mM NaCl, 3 mM MgCl2, 0.5% NP40). The lysates were preincubated for 2 hours with protein A/G-agarose (Dianova) to remove unspecifically binding components, whereupon 5 μg/ml CD44 antibody 5G8 was added and the reaction was allowed to rotate overnight. […]

[4] = test system: RT4-D6P2T cells; assay: Growth in culture vessels of merlin-inducible schwannoma clone 54; type: cell-based, rat; conditions: for merlin-dependent growth inhibition in confluent cell cultures: merlin expression induced by doxycyclin
Description: Growth in culture vessels: To determine the growth curves, each well of a 24-well plate was seeded with 5×10^3 cells (in FIG. 7: 2.5×10^3), and determinations in triplicate were carried out every 24 hours (days). Definition of the growth conditions:
1. Low cell density (=logarithmic or exponential growth) means a cell density of 500 cells per cm^2 24 hours after seeding.
2. high cell density (=confluent growth condition) is defined as a cell density of 5×10^3 cells per cm^2 24 hours after seeding.
A. The soluble extracellular domain of CD44 sequestrates different ligands of exponentially growing and confluent cells. In each case 3 wells of a 24-well plate were seeded in triplicate with cells of clone 54, and the cells were treated with doxycyclin in order to induce the expression of merlin. On day 1 (logarithmically growing cells) and on day 3 (confluent cells), 10 ng/ml of soluble extracellular CD44 domain, either of the wild type (solCD44 or solCD44wt) or of the glycosaminoglycan-binding mutant (solCD44mut), were added. As the control, cells were treated in the same manner without doxycylin (since the addition of solCD44 was ineffective, only one group of data is shown).
B. Hyaluronate delays growth. In each case 3 wells of a 24-well plate were seeded in triplicate with cells of clone 54. Doxycyclin and hyaluronate (100 μg/ml) were added as stated.

[5] = test system: p27^Kip1; assay: Induction of p27Kip1 in NIH3T3 cells (immune blot); type: cell-based, murine; conditions: for level of cell division cycle inhibitor p27^Kip1: 30 minutes, hyaluronan 100 μg/ml or solCD44s 10 ng/ml
Description: B. Induction of p27^Kip1 by treatment with hyaluronan. […] The next day, they were treated either with 100 μg/ml of hyaluronan or with 10 ng/ml solCD44s, and the plates were incubated for 30 minutes. The cells were harvested in 2×Laemmli sample buffer, and an immune blot with a polyclonal, p27^Kip1-specific antibody from rabbit was carried out (C-19, Santa Cruz). A polyclonal actin-antibody from goat (I-19, Santa Cruz) was used as loading control.

[6] = test system: NIH3T3 cells; assay: Growth rate of NIH3T3 cells; type: cell-based, murine; conditions: 100 μg/ml, cell counts on the following 3 days
Description: A. Growth rate of NIH3T3 cells after addition of hyaluronan. 24-well plates were seeded in triplicate with NIH3T3 cells at a density of 0.5×10^4 cells. Where stated, the culture medium was treated the next day with 100 μg/ml hyaluranon (Healon). The cell counts were determined on each of the following 3 days.

## N#CC(=C(/N)Sc1ccccc1N)/C(C#N)=C(/N)Sc1ccccc1N [UO126]
[1]
  hypophosphorylated Rb: increase
  level of p27^Kip1: higher level

## hyaluronate
[2]
  PDGF-dependent phosphorylation of Erk / activation of merlin: blocks the PDGF-dependent phosphorylation of Erk
[3]
  phosphorylation state of merlin: Induced dephosphorylation of merlin
[4]; hyaluronate 100 μg/ml, with doxycyclin
  growth of clone 54 cells: delays growth
[5]
  level of cell division cycle inhibitor p27^Kip1: increased
[5]; hyaluronate-induced activation of merlin
  induction of p21 and p27: induction of p21 and p27
[6]
  growth rate of NIH3T3 cells: reduced their growth rate

## hyaluronidase
[2]
  PDGF-dependent phosphorylation of Erk / activation of merlin: destroys the ligand responsible for the activation of merlin
[4]
  merlin-dependent growth inhibition in confluent cell cultures: prevents the inhibition of growth

## solCD44wt: soluble extracellular CD44 domain of the wild type
[2]
  PDGF-dependent phosphorylation of Erk / activation of merlin: nullifies blocking of the activation of merlin
[3]
  phosphorylation state of merlin: Induced dephosphorylation of merlin
[4]
  merlin-dependent growth inhibition in confluent cell cultures: growth inhibition is nullified
[4]; control cells without doxycyclin, 10 ng/ml
  effect on growth of cells without doxycyclin: ineffective
[4]; logarithmically growing cells, merlin induced by doxycyclin, soluble CD44 10 ng/ml
  growth of cultures in the logarithmic growth phase: growth inhibition is observed
[5]
  level of cell division cycle inhibitor p27^Kip1: increased
